PMC8744835, “Sterically Hindered Quaternary Phosphonium Salts (QPSs): Antimicrobial Activity and Hemolytic and Cytotoxic Properties” (International Journal of Molecular Sciences, 2021)

Legend:
[1] = system: Escherichia coli ATCC 25922; assay: Antimicrobial activity, serial dilution technique in Mueller–Hinton Broth 2; type: cell-based; conditions: average of three ± SD, - means non-active
[2] = system: Trichophyton mentagrophytes var. gypseum 1773; assay: Fungicidal activity, serial dilution technique; type: cell-based; conditions: Tm, average of three ± SD, - means non-active; for MBC / MIC: Trichophyton mentagrophytes; for MBC: read-out: Minimum Bactericidal and Fungicidal Concentration (MBC, MFC), Tm; for MIC: read-out: Minimum Inhibitory Concentration (MIC), Tm
Protocol: (§1) The synthesized compounds were tested for antimicrobial activity against a number of Gram-positive bacteria, Staphylococcus aureus (Sa), Bacillus cereus (Bc) and Enterococcus faecalis (Ef), and Gram-negative bacteria, Escherichia coli (Ec) and Pseudomonas aeruginosa (Pa), including the methicillin-resistant strains S. aureus MRSA-1 (resistant to fluoroquinolones and beta-lactams) and MRSA-2 (resistant to beta-lactams). The methicillin-resistant strains S. aureus were transferred by the Republican Clinical Hospital of the Republic of Tatarstan (Kazan). The fungicidal activity against Candida albicans (Ca) and Trichophyton mentagrophytes var. gypseum (Tm) was studied. These pathogens were chosen because they are the most widespread in the food industry and the healthcare system.
(§2) The antimicrobial activity of the QPSs was determined using the serial dilution technique in Mueller–Hinton Broth 2. The cultures used for testing included the Gram-positive bacteria Staphylococcus aureus ATCC 6538P FDA 209P, Enterococcus faecalis ATCC 2921 and Bacillus cereus ATCC 10702 NCTC 8035, the Gram-negative bacteria Escherichia coli ATCC 25922 and Pseudomonas aeruginosa ATCC 9027, and the fungi Trichophyton mentagrophytes var. gypseum 1773 and Candida albicans ATCC 10231; methicillin-resistant strains of S. aureus MRSA were obtained from hospital patients with chronic tonsillitis (MRSA-1) and sinusitis (MRSA-2) in the Republican Clinical Hospital (Kazan, Russia). Ciprofloxacin and ketoconazole were purchased from Sigma-Aldrich. The bacterial load was 3.0 × 10^5 cfu/mL. The results were recorded every 24 h for 5 days. The cultures were incubated at 37 °C. The experiment was repeated three times. […] The minimum inhibitory concentration (MIC) was defined as the minimum concentration of a compound that inhibits the growth of the corresponding test micro-organism. The growth of bacteria as well as the absence of growth due to the bacteriostatic action of a compound was recorded.

[3] = system: Candida albicans ATCC 10231; assay: Fungicidal activity, serial dilution technique; type: cell-based; conditions: average of three ± SD, - means non-active
Protocol: as §1, §2

[4] = system: Enterococcus faecalis ATCC 2921; assay: Antimicrobial activity, serial dilution technique in Mueller–Hinton Broth 2; type: cell-based; conditions: Ef; average of three ± SD; - means non-active
Protocol: as §1
as §2, with “Ciprofloxacin and ketoconazole were purchased from Sigma-Aldrich.” left out

[5] = system: Bacillus cereus ATCC 10702 NCTC 8035; assay: as above; type: cell-based; conditions: average of three ± SD, - means non-active
Protocol: as §1
as §2, with “Ciprofloxacin and ketoconazole were purchased from Sigma-Aldrich.” left out

[6] = system: Staphylococcus aureus ATCC 6538P FDA 209P; assay: as above; type: cell-based; conditions: average of three ± SD, - means non-active
Protocol: as §1
as §2, with “Ciprofloxacin and ketoconazole were purchased from Sigma-Aldrich.” left out

[7] = system: Escherichia coli ATCC 25922; assay: as above; type: cell-based; conditions: average of three ± SD, - means non-active; for MIC: Escherichia coli, ATCC25922, Ec, read-out: Minimum Inhibitory Concentration (MIC), Ec
Protocol: as §1
as §2, with “Ciprofloxacin and ketoconazole were purchased from Sigma-Aldrich.” left out

[8] = system: Pseudomonas aeruginosa ATCC 9027; assay: as above; type: cell-based; conditions: average of three ± SD, - means non-active; for MBC / MIC: Pseudomonas aeruginosa, ATCC9027, Pa; for MBC: read-out: Minimum Bactericidal and Fungicidal Concentration (MBC, MFC), Pa; for MIC: read-out: Minimum Inhibitory Concentration (MIC), Pa
Protocol: as §1
as §2, with “Ciprofloxacin and ketoconazole were purchased from Sigma-Aldrich.” left out

[9] = system: methicillin-resistant S. aureus MRSA-1; assay: as above; type: cell-based, Staphylococcus aureus; conditions: - means non-active; for Minimum Inhibitory Concentration (MIC), MRSA-1: MRSA-1 (resistant to fluoroquinolones and beta-lactams)
Protocol: as §1
as §2, with “Ciprofloxacin and ketoconazole were purchased from Sigma-Aldrich.” left out

[10] = system: methicillin-resistant S. aureus MRSA-2; assay: as above; type: cell-based, Staphylococcus aureus; conditions: - means non-active; for Minimum Inhibitory Concentration (MIC), MRSA-2: MRSA-2 (resistant to beta-lactams)
Protocol: as §1
as §2, with “Ciprofloxacin and ketoconazole were purchased from Sigma-Aldrich.” left out

SMILES	Minimum Inhibitory Concentration (MIC), Ef [4] [mg/L]	Minimum Inhibitory Concentration (MIC), Bc [5] [mg/L]	Minimum Inhibitory Concentration (MIC), Sa [6] [mg/L]	Minimum Inhibitory Concentration (MIC), Ec [7] [mg/L]	Minimum Inhibitory Concentration (MIC), Pa [8] [mg/L]	Minimum Inhibitory Concentration (MIC), MRSA-1 [9] [mg/L]	Minimum Inhibitory Concentration (MIC), MRSA-2 [10] [mg/L]	Minimum Bactericidal and Fungicidal Concentration (MBC, MFC), Ec [1] [mg/L]	Minimum Bactericidal and Fungicidal Concentration (MBC, MFC), Tm [2] [mg/L]	Minimum Inhibitory Concentration (MIC), Tm [2] [mg/L]	Minimum Bactericidal and Fungicidal Concentration (MBC, MFC), Ca [3] [mg/L]	Minimum Inhibitory Concentration (MIC), Ca [3] [mg/L]	Minimum Bactericidal and Fungicidal Concentration (MBC, MFC), Ef [4] [mg/L]	Minimum Bactericidal and Fungicidal Concentration (MBC, MFC), Bc [5] [mg/L]	Minimum Bactericidal and Fungicidal Concentration (MBC, MFC), Sa [6] [mg/L]	Minimum Bactericidal and Fungicidal Concentration (MBC, MFC), Pa [8] [mg/L]	Minimum Bactericidal and Fungicidal Concentration (MBC, MFC), MRSA-1 ([9]; MRSA-1) [mg/L]	Minimum Bactericidal and Fungicidal Concentration (MBC, MFC), MRSA-2 [10] [mg/L]	MBC [2] [mg/L]	MIC [2] [mg/L]	other results
CCCCCCCCCCCCCCCCC[P+](C(C)(C)C)(C(C)(C)C)C(C)(C)C [Compound 17a]	1.9 ± 0.1	0.9 ± 0.07	0.2 ± 0.01			0.9 ± 0.06	0.9 ± 0.07						1.9 ± 0.1				0.9 ± 0.07	0.9 ± 0.06	125 ± 10	125 ± 10	MBC ([1]; Escherichia coli, ATCC25922, Ec, read-out: Minimum Bactericidal and Fungicidal Concentration (MBC, MFC), Ec): 15.6 ± 1.3 mg/L; MBC ([3]; Candida albicans, ATCC10231, Ca, read-out: Minimum Bactericidal and Fungicidal Concentration (MBC, MFC), Ca): 3.9 ± 0.2 mg/L; MIC ([3]; Candida albicans, ATCC10231, Ca, read-out: Minimum Inhibitory Concentration (MIC), Ca): 1.9 ± 0.1 mg/L; MBC ([5]; Bacillus cereus, Bc, read-out: Minimum Bactericidal and Fungicidal Concentration (MBC, MFC), Bc): 15.6 ± 1.2 mg/L; MBC ([6]; Staphylococcus aureus, Sa, read-out: Minimum Bactericidal and Fungicidal Concentration (MBC, MFC), Sa): 0.5 ± 0.03 mg/L; MIC [7]: 15.6 ± 1.2 mg/L; MBC [8]: 7.8 ± 0.7 mg/L; MIC [8]: 7.8 ± 0.5 mg/L
CCCCCCCCCCCCCCCCCC[P+](C(C)(C)C)(C(C)(C)C)C(C)(C)C [Compound 18a]	0.9 ± 0.07	7.8 ± 0.6	0.9 ± 0.08			0.9 ± 0.07	0.9 ± 0.07	15.6 ± 1.1			3.9 ± 0.2	1.9 ± 0.1	0.9 ± 0.07	31.3 ± 2.5	0.9 ± 0.07			0.9 ± 0.07	125 ± 9	125 ± 11	MIC [7]: 15.6 ± 1.3 mg/L; MBC [8]: 62.5 ± 5.6 mg/L; MIC [8]: 15.6 ± 1.2 mg/L; MBC ([9]; Staphylococcus aureus, MRSA, MRSA-1, read-out: Minimum Bactericidal and Fungicidal Concentration (MBC, MFC), MRSA-1): 15.6 ± 1.2 mg/L
CCCCCCCCCCCCCCCCCC[P+](C(C)(C)C)(C(C)(C)C)C(C)(C)C [Compound 18b]	1.9 ± 0.1	31.3 ± 2.2	1.9 ± 0.1	15.6 ± 1.3	15.6 ± 1.3	7.8 ± 0.6	3.9 ± 0.2	62.5 ± 5.4	250 ± 19	250 ± 19	15.6 ± 1.2	7.8 ± 0.7	3.9 ± 0.2	125 ± 11	3.9 ± 0.2	31.3 ± 2.5	15.6 ± 1.2	3.9 ± 0.3			

Second part, led by results:

Minimum Inhibitory Concentration (MIC), Ef [4] [mg/L]	Minimum Inhibitory Concentration (MIC), Bc [5] [mg/L]	Minimum Inhibitory Concentration (MIC), Sa [6] [mg/L]	Minimum Inhibitory Concentration (MIC), Ec [7] [mg/L]	Minimum Inhibitory Concentration (MIC), Pa [8] [mg/L]	Minimum Inhibitory Concentration (MIC), MRSA-1 [9] [mg/L]	Minimum Inhibitory Concentration (MIC), MRSA-2 [10] [mg/L]	SMILES	Minimum Bactericidal and Fungicidal Concentration (MBC, MFC), Ec [1] [mg/L]	Minimum Bactericidal and Fungicidal Concentration (MBC, MFC), Tm [2] [mg/L]	Minimum Inhibitory Concentration (MIC), Tm [2] [mg/L]	Minimum Bactericidal and Fungicidal Concentration (MBC, MFC), Ca [3] [mg/L]	Minimum Inhibitory Concentration (MIC), Ca [3] [mg/L]	Minimum Bactericidal and Fungicidal Concentration (MBC, MFC), Ef [4] [mg/L]	Minimum Bactericidal and Fungicidal Concentration (MBC, MFC), Bc [5] [mg/L]	Minimum Bactericidal and Fungicidal Concentration (MBC, MFC), Sa [6] [mg/L]	Minimum Bactericidal and Fungicidal Concentration (MBC, MFC), Pa [8] [mg/L]	Minimum Bactericidal and Fungicidal Concentration (MBC, MFC), MRSA-1 ([9]; MRSA-1) [mg/L]	Minimum Bactericidal and Fungicidal Concentration (MBC, MFC), MRSA-2 [10] [mg/L]	MBC [2] [mg/L]	MIC [2] [mg/L]	other results
0.5 ± 0.04	0.5 ± 0.03	0.2 ± 0.01	3.9 ± 0.2	3.9 ± 0.2	0.3 ± 0.01	0.5 ± 0.03	CCCCCCCCCCCCCCC[P+](C(C)(C)C)(C(C)(C)C)C(C)(C)C [Compound 15b]	3.9 ± 0.2	62.5 ± 5.2	62.5 ± 5.5	15.6 ± 1.2	1.9 ± 0.1	3.9 ± 0.2	15.6 ± 1.3	0.5 ± 0.03	3.9 ± 0.3	0.3 ± 0.01	0.5 ± 0.04			
0.5 ± 0.04	1.9 ± 0.1	0.5 ± 0.03	1.9 ± 0.1	3.9 ± 0.02	1.9 ± 0.1	0.5 ± 0.03	CCCCCCCCCCCCCCCC[P+](C(C)(C)C)(C(C)(C)C)C(C)(C)C [Compound 16b]	1.9 ± 0.1			3.9 ± 0.2	3.9 ± 0.2	0.5 ± 0.03	31.3 ± 2.4	0.5 ± 0.03	62.5 ± 5.3	15.6 ± 1.2	3.9 ± 0.2	62.5 ± 5.5	62.5 ± 5.6	
